The results in this text go back to publication PMC10112504, “Novel 4-thiophenyl-pyrazole, pyridine, and pyrimidine derivatives as potential antitumor candidates targeting both EGFR and VEGFR-2; design, synthesis, biological evaluations, and in silico studies” (RSC Advances, 2023).

One series deals with HepG-2. The series is described as follows: Anti-proliferative activity, SRB colorimetric assay. Type of series: cell-based. The conditions noted are these: for IC50: Homo sapiens, HepG2, HepG-2 cancer cell line, SRB assay, read-out: Cell lines (IC50 μM) HepG-2; for anti-proliferative activity against HepG-2, in words: authors' grading of Table 1 values, key not given.
A further series concerns MCF-7. The series is described as above. Type of series: cell-based. Particulars: for IC50: Homo sapiens, MCF7, MCF-7 cancer cell line, SRB assay, read-out: Cell lines (IC50 μM) MCF-7; for anti-proliferative activity against MCF-7, in words: authors' grading of Table 1 values, key not given. For orientation: The SRB assay estimates cell density from bound dye.
The subject of the next series is S. aureus. The series is described as follows: Antibacterial activity, inhibition zone approach. The conditions noted are these: for S. aureus Diameter of inhibition zone (mm): Gram-positive bacteria; for S. aureus % Activity index: gentamicin = 100; for antimicrobial activity with S. aureus, in words: authors' grading of Table 2 values, key not given. Type of series: cell-based, Staphylococcus aureus.

The subject of a further series is B. subtilis. Nature of the series: Antibacterial activity, inhibition zone approach. Type of series: cell-based, Bacillus subtilis. Particulars: for B. subtilis Diameter of inhibition zone (mm): Gram-positive bacteria; for B. subtilis % Activity index: gentamicin = 100; for antimicrobial activity with B. subtilis, in words: authors' grading of Table 2 values, key not given.

In the next series the test system is E. coli. Nature of the series: Antibacterial activity, inhibition zone approach. The format is cell-based, Escherichia coli. Particulars: for E. coli Diameter of inhibition zone (mm): Gram-negative bacteria; for E. coli % Activity index: gentamicin = 100; for antimicrobial activity with E. coli, in words: authors' grading of Table 2 values, key not given.
In the next series the test system is P. aeuroginosa. Nature of the series: Antibacterial activity, inhibition zone approach. Type of series: cell-based, Pseudomonas aeuroginosa. Particulars: for P. aeuroginosa Diameter of inhibition zone (mm): Gram-negative bacteria; for P. aeuroginosa % Activity index: gentamicin = 100; for antimicrobial activity with P. aeuroginosa, in words: authors' grading of Table 2 values, key not given.

The next series concerns C. albicans. Nature of the series: Antifungal activity, inhibition zone approach. The format is cell-based, Candida albicans. The conditions noted are these: for C. albicans Diameter of inhibition zone (mm): Fungi; for C. albicans % Activity index: ketoconazole = 100; for antimicrobial activity with C. albicans, in words: authors' grading of Table 2 values, key not given.
The subject of the next series is A. flavus. Nature of the series: Antifungal activity, inhibition zone approach. Type of series: cell-based, Aspergillus flavus. The conditions noted are these: for A. flavus Diameter of inhibition zone (mm): Fungi; for A. flavus % Activity index: ketoconazole = 100; for antimicrobial activity with A. flavus, in words: authors' grading of Table 2 values, key not given.

One may read the IC50 as the point on the concentration scale where inhibition reaches its midpoint. A word on the melting point: it is the temperature of the solid-liquid transition.

Text for A. flavus: (§1) They were all tested against Gram-positive bacteria such as Staphylococcus aureus and Bacillus subtilis as well as Gram-negative bacteria such as Escherichia coli and Pseudomonas aeuroginosa. Also, the antifungal activity was investigated against Candida albicans and Aspergillus flavus strains. Gentamycin was used as the standard antibacterial drug whereas ketoconazole was regarded as the primary antifungal one.
(§2) They were all tested against Gram-positive bacteria such as S. aureus and B. subtilis as well as Gram-negative bacteria such as E. coli and P. aeuroginosa. Also, the antifungal activity was investigated against C. albicans and A. flavus subtypes. Gentamycin was used as the standard antibacterial drug whereas ketoconazole was regarded as the primary antifungal one.
Text for E. coli: as §1, §2
Experimental for HepG-2: (§3) The antitumor activities of the newly synthesized derivatives against two cancer cell lines (HepG-2 and MCF-7). Both cell lines were purchased from ATCC (American Type Culture Collection) via the holding company for biological products and vaccines (VACSERA, Cairo, Egypt). The cytotoxicity was assessed using the SRB colorimetric assay.[47]
Experimental for MCF-7: as §3
Text for P. aeuroginosa: as §1, §2
Text for S. aureus: as §1, §2

As for `CCOC(=O)c1c(-c2cccs2)cc(-c2ccc(O)cc2)[nH]c1=O` [4a, Ethyl 6-(4-hydroxyphenyl)-2-oxo-4-(thiophen-2-yl)-1,2-dihydropyridine-3-carboxylate], the melting point amounted to 125 °C. Besides, in the series with HepG-2, the IC50 was 44.5 ± 2.6 µM and the “anti-proliferative activity against HepG-2, in words” value is listed as “moderate”. In the series with MCF-7, the IC50 is 41.2 ± 2.4 µM and the “anti-proliferative activity against MCF-7, in words” value is given as “moderate”. In the series on S. aureus, the “S. aureus Diameter of inhibition zone (mm)” value worked out at 6 mm and the “S. aureus % Activity index” value is 33.3%. Also, in the series on B. subtilis, the “B. subtilis Diameter of inhibition zone (mm)” value is listed as 10 mm and the “B. subtilis % Activity index” value amounted to 45.4%. For the same molecule, in the series on E. coli, the “E. coli Diameter of inhibition zone (mm)” value stood at 5 mm and the “E. coli % Activity index” value came to 23.8%. In the series on P. aeuroginosa, the “P. aeuroginosa Diameter of inhibition zone (mm)” value was found to be 8 mm and the “P. aeuroginosa % Activity index” value amounted to 42.1%. In the series on C. albicans, the “C. albicans Diameter of inhibition zone (mm)” value was 13 mm and the “C. albicans % Activity index” value is on record as 46.4%. Further, in the series on A. flavus, the “A. flavus Diameter of inhibition zone (mm)” value turned out to be 11 mm and the “A. flavus % Activity index” value was determined as 42.3%.

Regarding `N#Cc1c(-c2cccs2)cc(-c2ccc(O)cc2)nc1O` [5a, 2-hydroxy-6-(4-hydroxyphenyl)-4-(thiophen-2-yl)nicotinonitrile], the melting point worked out at 200 °C. In addition, in the series with HepG-2, the IC50 amounted to 43 ± 2.5 µM and the “anti-proliferative activity against HepG-2, in words” value is recorded as “moderate”. Further, in the series with MCF-7, the half-maximal inhibitory concentration (IC50) was found to be 38.4 ± 2.5 µM and the “anti-proliferative activity against MCF-7, in words” value was “moderate”. Moreover, in the series with S. aureus, the “S. aureus Diameter of inhibition zone (mm)” value was 6 mm and the “S. aureus % Activity index” value was found to be 33.3%. In the series with B. subtilis, the “B. subtilis Diameter of inhibition zone (mm)” value is 10 mm and the “B. subtilis % Activity index” value was 45.4%. For the same molecule, in the series on E. coli, the “E. coli Diameter of inhibition zone (mm)” value is listed as 5 mm and the “E. coli % Activity index” value was found to be 23.8%. Also, in the series with P. aeuroginosa, the “P. aeuroginosa Diameter of inhibition zone (mm)” value was 10 mm and the “P. aeuroginosa % Activity index” value was 52.6%. In the series with C. albicans, the “C. albicans Diameter of inhibition zone (mm)” value is reported as 14 mm and the “C. albicans % Activity index” value was found to be 50.0%. Besides, in the series with A. flavus, the “A. flavus Diameter of inhibition zone (mm)” value is on record as 8 mm and the “A. flavus % Activity index” value amounted to 30.8%.

As for `NC(=S)n1nc(-c2ccc(O)cc2)cc1-c1cccs1` [10a, 3-(4-hydroxyphenyl)-5-(thiophen-2-yl)-1H-pyrazole-1-carbothioamide], the melting point fell in the range of 195 to 197 °C. For the same molecule, in the series with HepG-2, the 50% inhibitory concentration (IC50) is 39.1 ± 2.4 µM and the “anti-proliferative activity against HepG-2, in words” value is “moderate”. Moreover, in the series with MCF-7, the IC50 came out at 23.7 ± 1.7 µM and the “anti-proliferative activity against MCF-7, in words” value is reported as “moderate”. In the series on S. aureus, the “S. aureus Diameter of inhibition zone (mm)” value is 9 mm; the “antimicrobial activity with S. aureus, in words” value is “moderate”; the “S. aureus % Activity index” value is 50.0%. Besides, in the series on B. subtilis, the “B. subtilis Diameter of inhibition zone (mm)” value is listed as 13 mm; the “antimicrobial activity with B. subtilis, in words” value is reported as “moderate”; the “B. subtilis % Activity index” value came out at 59.1%. Moreover, in the series on E. coli, the “E. coli Diameter of inhibition zone (mm)” value is reported as 8 mm; the “antimicrobial activity with E. coli, in words” value is “moderate”; the “E. coli % Activity index” value is reported as 38.1%. Besides, in the series with P. aeuroginosa, the “P. aeuroginosa Diameter of inhibition zone (mm)” value is 12 mm; the “antimicrobial activity with P. aeuroginosa, in words” value is reported as “moderate”; the “P. aeuroginosa % Activity index” value is on record as 63.1%. In addition, in the series with C. albicans, the “C. albicans Diameter of inhibition zone (mm)” value came out at 13 mm; the “antimicrobial activity with C. albicans, in words” value was “moderate”; the “C. albicans % Activity index” value stood at 46.4%. In the series with A. flavus, the “A. flavus Diameter of inhibition zone (mm)” value is reported as 11 mm; the “antimicrobial activity with A. flavus, in words” value is “moderate”; the “A. flavus % Activity index” value worked out at 42.3%.

On to `O=C(CNC(=S)n1nc(-c2ccc(Cl)c(Cl)c2)cc1-c1cccs1)c1ccccc1` [12b, 3-(3,4-dichlorophenyl)-N-(2-oxo-2-phenylethyl)-5-(thiophen-2-yl)-1H-pyrazole-1-carbothioamide], for which the melting point stood at 160 °C. The IC50 with HepG-2 turned out to be 29.2 ± 2.1 µM. In the series with MCF-7, the IC50 amounted to 36 ± 2.3 µM. Moreover, in the series with S. aureus, the “S. aureus Diameter of inhibition zone (mm)” value worked out at 7 mm and the “S. aureus % Activity index” value is 38.9%. Moreover, in the series on B. subtilis, the “B. subtilis Diameter of inhibition zone (mm)” value turned out to be 12 mm and the “B. subtilis % Activity index” value came out at 54.5%. In addition, in the series with E. coli, the “E. coli Diameter of inhibition zone (mm)” value amounted to 5 mm and the “E. coli % Activity index” value was determined as 23.8%. Moreover, in the series on P. aeuroginosa, the “P. aeuroginosa Diameter of inhibition zone (mm)” value was found to be 8 mm and the “P. aeuroginosa % Activity index” value came to 42.1%. Also, in the series with C. albicans, the “C. albicans Diameter of inhibition zone (mm)” value was 15 mm and the “C. albicans % Activity index” value is on record as 53.6%. Further, in the series on A. flavus, the “A. flavus Diameter of inhibition zone (mm)” value worked out at 10 mm and the “A. flavus % Activity index” value worked out at 38.5%.

Molecule `Oc1ccc(-c2cc(-c3cccs3)nc(/N=C/c3ccccc3O)n2)cc1` [13a, (E)-2-(((4-(4-hydroxyphenyl)-6-(thiophen-2-yl)pyrimidin-2-yl)imino)methyl)phenol] came in with a melting point of 133 to 135 °C. Moreover, in the series on HepG-2, the IC50 turned out to be 34.8 ± 2.3 µM. Further, in the series on MCF-7, the IC50 was determined as 42.8 ± 2.6 µM. Besides, in the series with S. aureus, the “S. aureus Diameter of inhibition zone (mm)” value is listed as 14 mm; the “antimicrobial activity with S. aureus, in words” value is on record as “very strong”; the “S. aureus % Activity index” value stood at 77.8%. Besides, in the series with B. subtilis, the “B. subtilis Diameter of inhibition zone (mm)” value is on record as 18 mm; the “antimicrobial activity with B. subtilis, in words” value is given as “very strong”; the “B. subtilis % Activity index” value came out at 81.8%. In the series on E. coli, the “E. coli Diameter of inhibition zone (mm)” value was determined as 13 mm; the “antimicrobial activity with E. coli, in words” value is reported as “very strong”; the “E. coli % Activity index” value turned out to be 61.9%. In the series on P. aeuroginosa, the “P. aeuroginosa Diameter of inhibition zone (mm)” value is 15 mm; the “antimicrobial activity with P. aeuroginosa, in words” value was “very strong”; the “P. aeuroginosa % Activity index” value was 78.9%. In the series with C. albicans, the “C. albicans Diameter of inhibition zone (mm)” value came out at 21 mm; the “antimicrobial activity with C. albicans, in words” value is listed as “very strong”; the “C. albicans % Activity index” value worked out at 75.0%. Further, in the series on A. flavus, the “A. flavus Diameter of inhibition zone (mm)” value came to 16 mm; the “antimicrobial activity with A. flavus, in words” value is “very strong”; the “A. flavus % Activity index” value is recorded as 61.5%.
